From ChEMBL document CHEMBL4028802, “DILIrank: the largest reference drug list ranked by the risk for developing drug-induced liver injury in humans” (Drug Discov Today, 2016)

What was measured:
Homo sapiens [1] = species: Homo sapiens; assay: Liver toxicity in human assessed as induction of drug-induced liver injury by measuring severity class index
Homo sapiens [2] = species: Homo sapiens; assay: Liver toxicity in human assessed as induction of drug-induced liver injury by measuring verified drug-induced liver injury concern status
Throughout, for DILI severity class: key of the grades not given here.

Structure (SMILES) | DILI_severity_class (Homo sapiens [1]) | DILI_Concern (Homo sapiens [2])
Cc1c(OCC(F)(F)F)ccnc1C[S+]([O-])c1nc2ccccc2[nH]1 (stereo not drawn) [LANSOPRAZOLE] | 3 | Less-Dili-Concern
CS(=O)(=O)CCNCc1ccc(-c2ccc3ncnc(Nc4ccc(OCc5cccc(F)c5)c(Cl)c4)c3c2)o1 [LAPATINIB] | 8 | Most-Dili-Concern
Cc1oncc1C(=O)Nc1ccc(C(F)(F)F)cc1 [LEFLUNOMIDE] | 8 | Most-Dili-Concern
Nc1cccc2c1CN(C1CCC(=O)NC1=O)C2=O (stereo not drawn) [LENALIDOMIDE] | 3 | Less-Dili-Concern
N#Cc1ccc(C(c2ccc(C#N)cc2)n2cncn2)cc1 [LETROZOLE] | 2 | Less-Dili-Concern
Nc1nc(=O)c2c([nH]1)NCC(CNc1ccc(C(=O)N[C@@H](CCC(=O)[O-])C(=O)[O-])cc1)N2C=O.[Ca+2] (stereo partly drawn) [LEUCOVORIN CALCIUM] | 0 | No-Dili-Concern
Nc1nc2c(c(=O)[nH]1)N(C=O)C(CNc1ccc(C(=O)N[C@@H](CCC(=O)O)C(=O)O)cc1)CN2 (stereo partly drawn) [LEUCOVORIN] | 0 | No-Dili-Concern
C[N+](C)(C)C[C@H](O)CC(=O)[O-] [LEVOCARNITINE] | 0 | No-Dili-Concern
Cl.Cl.O=C(O)COCCN1CCN([C@H](c2ccccc2)c2ccc(Cl)cc2)CC1 [LEVOCETIRIZINE DIHYDROCHLORIDE] | 4 | Less-Dili-Concern
C[C@H]1COc2c(N3CCN(C)CC3)c(F)cc3c(=O)c(C(=O)O)cn1c23.C[C@H]1COc2c(N3CCN(C)CC3)c(F)cc3c(=O)c(C(=O)O)cn1c23.O [LEVOFLOXACIN] | 8 | Most-Dili-Concern
CN1c2c(nc(N)[nH]c2=O)NC[C@@H]1CNc1ccc(C(=O)N[C@@H](CCC(=O)[O-])C(=O)[O-])cc1.[Ca+2] [LEVOMEFOLATE CALCIUM] | 0 | No-Dili-Concern
C#C[C@]1(O)CC[C@H]2[C@@H]3CCC4=CC(=O)CC[C@@H]4[C@H]3CC[C@@]21CC [LEVONORGESTREL] | 0 | No-Dili-Concern
CN1CC[C@]23CCCC[C@H]2[C@H]1Cc1ccc(O)cc13 [LEVORPHANOL] | 0 | No-Dili-Concern
N[C@@H](Cc1cc(I)c(Oc2cc(I)c(O)c(I)c2)c(I)c1)C(=O)O [LEVOTHYROXINE] | 3 | Less-Dili-Concern
CCN(CC)CC(=O)Nc1c(C)cccc1C [LIDOCAINE] | 0 | No-Dili-Concern
CCC[C@@H]1C[C@@H](C(=O)N[C@@H]([C@H]2O[C@H](SC)[C@H](O)[C@@H](O)[C@H]2O)[C@@H](C)O)N(C)C1 [LINCOMYCIN] | 3 | Ambiguous-Dili-Concern
CC(=O)NC[C@H]1CN(c2ccc(N3CCOCC3)c(F)c2)C(=O)O1 [LINEZOLID] | 3 | Less-Dili-Concern
N[C@@H](Cc1cc(I)c(Oc2ccc(O)c(I)c2)c(I)c1)C(=O)O [LIOTHYRONINE] | 0 | No-Dili-Concern
C[C@@H](Cc1ccccc1)NC(=O)[C@@H](N)CCCCN [LISDEXAMFETAMINE] | 3 | Ambiguous-Dili-Concern
NCCCC[C@H](N[C@@H](CCc1ccccc1)C(=O)O)C(=O)N1CCC[C@H]1C(=O)O [LISINOPRIL ANHYDROUS] | 3 | Less-Dili-Concern
O=NN(CCCl)C(=O)NC1CCCCC1 [LOMUSTINE] | 3 | Less-Dili-Concern
CN(C)C(=O)C(CCN1CCC(O)(c2ccc(Cl)cc2)CC1)(c1ccccc1)c1ccccc1 [LOPERAMIDE] | 0 | No-Dili-Concern
N[C@@H](C(=O)N[C@@H]1C(=O)N2C(C(=O)O)=C(Cl)CC[C@H]12)c1ccccc1 [LORACARBEF ANHYDROUS] | 3 | Less-Dili-Concern
O=C1Nc2ccc(Cl)cc2C(c2ccccc2Cl)=NC1O (stereo not drawn) [LORAZEPAM] | 3 | Ambiguous-Dili-Concern
CCCCc1nc(Cl)c(CO)n1Cc1ccc(-c2ccccc2-c2nn[nH]n2)cc1 [LOSARTAN] | 4 | Less-Dili-Concern
CN1CCN(C2=Nc3ccccc3Oc3ccc(Cl)cc32)CC1 [LOXAPINE] | 5 | Ambiguous-Dili-Concern
CCCCC(F)(F)[C@@]1(O)CC[C@H]2[C@@H](CC(=O)[C@@H]2CCCCCCC(=O)O)O1 [LUBIPROSTONE] | 0 | No-Dili-Concern

Structure (SMILES) | DILI_severity_class (Homo sapiens [1]) | DILI_Concern (Homo sapiens [2])
Cc1ccc(Nc2c(F)cccc2Cl)c(CC(=O)O)c1 [LUMIRACOXIB] | 8 | Most-Dili-Concern
OC[C@@H](O)[C@@H](O)[C@H](O)[C@H](O)CO [MANNITOL] | 0 | No-Dili-Concern
CNCCCC12CCC(c3ccccc31)c1ccccc12 [MAPROTILINE] | 5 | Ambiguous-Dili-Concern
Cc1nnc(C(C)C)n1[C@@H]1C[C@H]2CC[C@@H](C1)N2CC[C@H](NC(=O)C1CCC(F)(F)CC1)c1ccccc1 [MARAVIROC] | 3 | Most-Dili-Concern
CC(NN)c1ccccc1 (stereo not drawn) [MEBANAZINE] | 8 | Most-Dili-Concern
COC(=O)Nc1nc2ccc(C(=O)c3ccccc3)cc2[nH]1 [MEBENDAZOLE] | 3 | Less-Dili-Concern
CNC1(C)C2CCC(C2)C1(C)C (stereo not drawn) [MECAMYLAMINE] | 0 | No-Dili-Concern
Cc1cccc(CN2CCN(C(c3ccccc3)c3ccc(Cl)cc3)CC2)c1 (stereo not drawn) [MECLIZINE] | 0 | No-Dili-Concern
Cc1ccc(Cl)c(Nc2ccccc2C(=O)O)c1Cl [MECLOFENAMIC ACID] | 3 | Ambiguous-Dili-Concern
Cc1cccc(Nc2ccccc2C(=O)O)c1C [MEFENAMIC ACID] | 8 | Most-Dili-Concern
Cc1cnc(NC(=O)C2=C(O)c3ccccc3S(=O)(=O)N2C)s1 [MELOXICAM] | 3 | Less-Dili-Concern
CC12CC3CC(C)(C1)CC(N)(C3)C2 [MEMANTINE] | 7 | Less-Dili-Concern
CN1CCCC(CN2c3ccccc3Sc3ccccc32)C1 (stereo not drawn) [MEPAZINE] | 8 | Most-Dili-Concern
C[N+]1(C)CCCC(OC(=O)C(O)(c2ccccc2)c2ccccc2)C1 (stereo not drawn) [MEPENZOLATE] | 0 | No-Dili-Concern
CCOC(=O)C1(c2ccccc2)CCN(C)CC1 [MEPERIDINE] | 0 | No-Dili-Concern
CCC1(c2ccccc2)NC(=O)N(C)C1=O (stereo not drawn) [MEPHENYTOIN] | 5 | Ambiguous-Dili-Concern
Cc1cccc(C)c1NC(=O)C1CCCCN1C (stereo not drawn) [MEPIVACAINE] | 0 | No-Dili-Concern
CCCC(C)(COC(N)=O)COC(N)=O [MEPROBAMATE] | 0 | No-Dili-Concern
Sc1ncnc2nc[nH]c12 [MERCAPTOPURINE ANHYDROUS] | 8 | Most-Dili-Concern
C[C@@H](O)[C@H]1C(=O)N2C(C(=O)O)=C(S[C@@H]3CN[C@H](C(=O)N(C)C)C3)[C@H](C)[C@H]12 [MEROPENEM] | 3 | Less-Dili-Concern
Nc1ccc(O)c(C(=O)O)c1 [MESALAMINE] | 7 | Less-Dili-Concern
O=S(=O)([O-])CCS.[Na+] [MESNA] | 3 | Ambiguous-Dili-Concern
CN1CCCCC1CCN1c2ccccc2Sc2ccc([S+](C)[O-])cc21 (stereo not drawn) [MESORIDAZINE] | 5 | Ambiguous-Dili-Concern
CC(C)NCC(O)c1cc(O)cc(O)c1 (stereo not drawn) [METAPROTERENOL] | 0 | No-Dili-Concern
Cc1cc(C)cc(OCC2CNC(=O)O2)c1 (stereo not drawn) [METAXALONE] | 5 | Less-Dili-Concern
CN(C)C(=N)N=C(N)N [METFORMIN] | 0 | Less-Dili-Concern
CCC(=O)C(CC(C)N(C)C)(c1ccccc1)c1ccccc1 (stereo not drawn) [METHADONE] | 3 | Ambiguous-Dili-Concern
